From patent US12662489B2 (Sitryx Therapeutics Limited, priority 2023, dated 2026) come the findings set out here.

The target of experiment [1] is T1, MTHFD1 recombinant human enzyme (Homo sapiens, UniProt P11586).
T1 sequence (P11586 2-291 limits assumed): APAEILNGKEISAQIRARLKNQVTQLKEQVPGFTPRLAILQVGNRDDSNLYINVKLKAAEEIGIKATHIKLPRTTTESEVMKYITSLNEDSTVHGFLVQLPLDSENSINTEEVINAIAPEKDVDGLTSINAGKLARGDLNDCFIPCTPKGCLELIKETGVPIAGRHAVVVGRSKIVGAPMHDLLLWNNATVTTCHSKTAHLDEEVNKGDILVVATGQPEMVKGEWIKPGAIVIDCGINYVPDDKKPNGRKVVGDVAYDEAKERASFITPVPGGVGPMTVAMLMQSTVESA
In words: MTHFD1 inhibition assay (NAD(P)H-Glo luminescence). The following applies: MTHFD1 IC50, recombinant human enzyme 200 nM, NADP, band.

Experiment [2] addresses T2, MTHFD2 recombinant human enzyme (Homo sapiens, UniProt P13995).
T2 sequence (P13995 36-350): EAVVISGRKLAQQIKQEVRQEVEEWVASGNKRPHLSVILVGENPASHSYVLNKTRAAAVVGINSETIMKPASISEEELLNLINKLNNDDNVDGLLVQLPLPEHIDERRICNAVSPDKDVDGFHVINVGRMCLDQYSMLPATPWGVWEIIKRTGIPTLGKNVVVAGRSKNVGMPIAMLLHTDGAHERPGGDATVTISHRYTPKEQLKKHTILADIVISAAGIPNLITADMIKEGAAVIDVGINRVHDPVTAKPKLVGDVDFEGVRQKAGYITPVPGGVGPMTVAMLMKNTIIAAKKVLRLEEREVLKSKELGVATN
Kind of experiment: MTHFD2 inhibition assay (NAD(P)H-Glo luminescence). The following applies: for MTHFD1/MTHFD2 IC50 ratio: selectivity of MTHFD2 inhibition over MTHFD1, band.

Each structure is given as a SMILES string. Bounds are passed on as bounds.

For `COC[C@H]1CN(c2cc(C)c3c4c(c(=O)oc3c2C)CN(C(=O)c2ccc(C(=O)NS(=O)(=O)N(C)C)c(OC3CCCC3)c2F)CC4)CCN1C` [Example 43, (R)-2-(cyclopentyloxy)-N-(N,N-dimethylsulfamoyl)-3-fluoro-4-(8-(3-(methoxymethyl)-4-methylpiperazin-1-yl)-7,10-dimethyl-5-oxo-1,3,4,5-tetrahydro-2H-chromeno[3,4-c]pyridine-3-carbonyl)benzamide], the IC50 in experiment [1] was 1 to 10 nM. For the same molecule, in experiment [2], the IC50 lay in the range of 1 to 10 nM and the “MTHFD1/MTHFD2 IC50 ratio” value is reported as “F (<3)”.
Turning to `COC[C@H]1CN(c2ccc3c4c(c(=O)oc3c2C)CN(C(=O)c2cc(N3CC5CC5C3)c(C(=O)NS(=O)(=O)N3CCCC3)c(C(F)(F)F)c2)CC4)CCN1C` (stereo partly drawn) [Example 112, 2-(3-azabicyclo[3.1.0]hexan-3-yl)-4-(8-((R)-3-(methoxymethyl)-4-methylpiperazin-1-yl)-7-methyl-5-oxo-1,3,4,5-tetrahydro-2H-chromeno[3,4-c]pyridine-3-carbonyl)-N-(pyrrolidin-1-ylsulfonyl)-6-(trifluoromethyl)benzamide], the figures for the IC50 in experiment [1] and in experiment [2] were greater than 5000 nM and 100 to 1000 nM, respectively. The “MTHFD1/MTHFD2 IC50 ratio” value in experiment [2] is “G (^ 3 to 9.0)”.
With `COC[C@H]1CN(c2cc(C)c3c4c(c(=O)oc3c2C)CN(C(=O)c2ccc(C(=O)NS(=O)(=O)C3(C)CC3)c(O[C@H]3C[C@@H]5C[C@@H]5C3)c2F)CC4)CCN1C` [Example 68, 2-(((1R,3s,5S)-bicyclo[3.1.0]hexan-3-yl)oxy)-3-fluoro-4-(8-((R)-3-(methoxymethyl)-4-methylpiperazin-1-yl)-7,10-dimethyl-5-oxo-1,3,4,5-tetrahydro-2H-chromeno[3,4-c]pyridine-3-carbonyl)-N-((1-methylcyclopropyl)sulfonyl)benzamide], the 50% inhibitory concentration (IC50) in experiment [1] is 1 to 10 nM. For the same molecule, in experiment [2], the IC50 was 1 to 10 nM and the “MTHFD1/MTHFD2 IC50 ratio” value was “F (<3)”.
Regarding `COC[C@H]1CN(c2cc(C)c3c4c(c(=O)oc3c2C)CN(C(=O)c2ccc(C(=O)NS(=O)(=O)N3CCCC3)c(N3CCC[C@H]3C)c2)CC4)CCN1C` [Example 124, 4-(8-((R)-3-(methoxymethyl)-4-methylpiperazin-1-yl)-7,10-dimethyl-5-oxo-1,3,4,5-tetrahydro-2H-chromeno[3,4-c]pyridine-3-carbonyl)-2-((R)-2-methylpyrrolidin-1-yl)-N-(pyrrolidin-1-ylsulfonyl)benzamide], the half-maximal inhibitory concentration (IC50) in experiment [1] is 100 to 1000 nM. Moreover, in experiment [2], the IC50 fell in the range of 100 to 1000 nM and the “MTHFD1/MTHFD2 IC50 ratio” value was “F (<3)”.
Take `COC[C@H]1CN(c2cc(C)c3c4c(c(=O)oc3c2C)CN(C(=O)c2cc(OC3CCC3)c(C(=O)NS(=O)(=O)N3CCCC3)c(C(F)(F)F)c2)CC4)CCN1C` [Example 132, (R)-2-cyclobutoxy-4-(8-(3-(methoxymethyl)-4-methylpiperazin-1-yl)-7,10-dimethyl-5-oxo-1,3,4,5-tetrahydro-2H-chromeno[3,4-c]pyridine-3-carbonyl)-N-(pyrrolidin-1-ylsulfonyl)-6-(trifluoromethyl)benzamide]: the half-maximal inhibitory concentration (IC50) in experiment [1] fell in the range of 100 to 1000 nM. Further, in experiment [2], the half-maximal inhibitory concentration (IC50) fell in the range of 10 to 100 nM and the “MTHFD1/MTHFD2 IC50 ratio” value is given as “H (>9.0 to 30)”.
As for `COC[C@H]1CN(c2ccc3c4c(c(=O)oc3c2C)CN(C(=O)c2cc(Cl)c(C(=O)NS(=O)(=O)N3CCCC3)c(N3CC5CC5C3)c2)CC4)CCN1C` (stereo partly drawn) [Example 105, 2-(3-azabicyclo[3.1.0]hexan-3-yl)-6-chloro-4-(8-((R)-3-(methoxymethyl)-4-methylpiperazin-1-yl)-7-methyl-5-oxo-1,3,4,5-tetrahydro-2H-chromeno[3,4-c]pyridine-3-carbonyl)-N-(pyrrolidin-1-ylsulfonyl)benzamide], in experiment [1], the IC50 was 100 to 1000 nM. Further, in experiment [2], the IC50 was 100 to 1000 nM and the “MTHFD1/MTHFD2 IC50 ratio” value was “G (^ 3 to 9.0)”.
As to `COC[C@H]1CN(c2cc(Cl)c3c4c(c(=O)oc3c2C)CN(C(=O)c2ccc(C(=O)NS(=O)(=O)N3CC5(CCC5)C3)c(OC)c2)CC4)CCN1C` [Example 279, (R)-N-((2-azaspiro[3.3]heptan-2-yl)sulfonyl)-4-(10-chloro-8-(3-(methoxymethyl)-4-methylpiperazin-1-yl)-7-methyl-5-oxo-1,3,4,5-tetrahydro-2H-chromeno[3,4-c]pyridine-3-carbonyl)-2-methoxybenzamide], in experiment [1], the IC50 lay in the range of 100 to 1000 nM. Further, in experiment [2], the IC50 lay within 10 to 100 nM and the “MTHFD1/MTHFD2 IC50 ratio” value is given as “H (>9.0 to 30)”.
As for `COC[C@H]1CN(c2ccc3c4c(c(=O)oc3c2Cl)CN(C(=O)c2ccc(C(=O)NS(=O)(=O)N3CCCC3)c(OC3CCCC3)c2F)CC4)CCN1C` [Example 6, (R)-4-(7-chloro-8-(3-(methoxymethyl)-4-methylpiperazin-1-yl)-5-oxo-1,3,4,5-tetrahydro-2H-chromeno[3,4-c]pyridine-3-carbonyl)-2-(cyclopentyloxy)-3-fluoro-N-(pyrrolidin-1-ylsulfonyl)benzamide], the 50% inhibitory concentration (IC50) in experiment [1] is 1 to 10 nM. In experiment [2], the half-inhibitory concentration (IC50) lay within 10 to 100 nM and the “MTHFD1/MTHFD2 IC50 ratio” value was “F (<3)”.
For the molecule `COC[C@H]1CN(c2cc(C)c3c4c(c(=O)oc3c2C)CN(C(=O)c2cc(OC)c(C(=O)NS(=O)(=O)N(C)C)c(N3CCCC3)c2)CC4)CCN1C` [Example 119, (R)-N-(N,N-dimethylsulfamoyl)-2-methoxy-4-(8-(3-(methoxymethyl)-4-methylpiperazin-1-yl)-7,10-dimethyl-5-oxo-1,3,4,5-tetrahydro-2H-chromeno[3,4-c]pyridine-3-carbonyl)-6-(pyrrolidin-1-yl)benzamide], in experiment [1], the half-maximal inhibitory concentration (IC50) was 100 to 1000 nM. In experiment [2], the IC50 is 10 to 100 nM and the “MTHFD1/MTHFD2 IC50 ratio” value was “G (^ 3 to 9.0)”.
In the same order, the values of `COC[C@H]1CN(c2ccc3c4c(c(=O)oc3c2Cl)CN(C(=O)c2ccc(C(=O)NS(=O)(=O)C3(C)CC3)c(O[C@@H]3C[C@@H]5C[C@@H]5C3)c2F)CC4)CCN1C` [Example 60, 2-(((1R,3r,5S)-bicyclo[3.1.0]hexan-3-yl)oxy)-4-(7-chloro-8-((R)-3-(methoxymethyl)-4-methylpiperazin-1-yl)-5-oxo-1,3,4,5-tetrahydro-2H-chromeno[3,4-c]pyridine-3-carbonyl)-3-fluoro-N-((1-methylcyclopropyl)sulfonyl)benzamide] are 1 to 10 nM, 1 to 10 nM and “F (<3)”.
For `COC[C@H]1CN(c2cc(C)c3c4c(c(=O)oc3c2C)CN(C(=O)c2ccc(C(=O)NS(=O)(=O)N3CCCC3)c(N(C)C3CCC3)c2)CC4)CCN1C` [Example 200, (R)-2-(cyclobutyl(methyl)amino)-4-(8-(3-(methoxymethyl)-4-methylpiperazin-1-yl)-7,10-dimethyl-5-oxo-1,3,4,5-tetrahydro-2H-chromeno[3,4-c]pyridine-3-carbonyl)-N-(pyrrolidin-1-ylsulfonyl)benzamide] the same measures were 100 to 1000 nM, 10 to 100 nM and “H (>9.0 to 30)”.
For the molecule `COC[C@H]1CN(c2ccc3c4c(c(=O)oc3c2Cl)CN(C(=O)c2ccc(C(=O)NS(=O)(=O)N3CCCC3)c(OC3CCC3)c2F)CC4)CCN1C` [Example 53, (R)-4-(7-chloro-8-(3-(methoxymethyl)-4-methylpiperazin-1-yl)-5-oxo-1,3,4,5-tetrahydro-2H-chromeno[3,4-c]pyridine-3-carbonyl)-2-cyclobutoxy-3-fluoro-N-(pyrrolidin-1-ylsulfonyl)benzamide], the IC50 in experiment [1] fell in the range of 1 to 10 nM. Besides, in experiment [2], the concentration for half-maximal inhibition (IC50) lay within 10 to 100 nM and the “MTHFD1/MTHFD2 IC50 ratio” value was “F (<3)”.
For `COC[C@H]1CN(c2ccc3c4c(c(=O)oc3c2Cl)CN(C(=O)c2ccc(C(=O)NS(=O)(=O)N(C)C)c(OC3CCCC3)c2F)CC4)CCN1C` [Example 44, (R)-4-(7-chloro-8-(3-(methoxymethyl)-4-methylpiperazin-1-yl)-5-oxo-1,3,4,5-tetrahydro-2H-chromeno[3,4-c]pyridine-3-carbonyl)-2-(cyclopentyloxy)-N-(N,N-dimethylsulfamoyl)-3-fluorobenzamide], in experiment [1], the IC50 fell in the range of 1 to 10 nM. Further, in experiment [2], the IC50 was in the range of 1 to 10 nM and the “MTHFD1/MTHFD2 IC50 ratio” value was “F (<3)”.
For the molecule `COC[C@H]1CN(c2cc(C)c3c4c(c(=O)oc3c2C)CN(C(=O)c2ccc(C(=O)NS(=O)(=O)C3(C)CC3)c(OC3C[C@@H]5C[C@@H]5C3)c2F)CC4)CCN1C` (stereo partly drawn) [Example 37, 2-(((1R,3r,5S)-bicyclo[3.1.0]hexan-3-yl)oxy)-3-fluoro-4-(8-((R)-3-(methoxymethyl)-4-methylpiperazin-1-yl)-7,10-dimethyl-5-oxo-1,3,4,5-tetrahydro-2H-chromeno[3,4-c]pyridine-3-carbonyl)-N-((1-methylcyclopropyl)sulfonyl)benzamide], the 50% inhibitory concentration (IC50) in experiment [1] is 1 to 10 nM. Also, in experiment [2], the IC50 is 1 to 10 nM and the “MTHFD1/MTHFD2 IC50 ratio” value is “F (<3)”.
`CCOc1c(C(=O)NS(=O)(=O)N2C3CCCC2CC3)ccc(C(=O)N2CCc3c(c(=O)oc4c(C)c(N5CCN(C)[C@@H](COC)C5)ccc34)C2)c1F` [Example 236]: the IC50 in experiment [1] fell in the range of 10 to 100 nM. Besides, in experiment [2], the IC50 lay within 10 to 100 nM and the “MTHFD1/MTHFD2 IC50 ratio” value is “F (<3)”.
